Here are results for nine molecules from publication PMC6838683, “Discovery of Human Signaling Systems: Pairing Peptides to G Protein-Coupled Receptors” (Cell, 2019).

One may read the Emax as the size of the effect at its maximum, as opposed to the concentration needed.

Where two headings read alike, the source gives them in different places. Positions of bridges follow the written chain, without caps; N, C: chain ends. No end group written: not given here.

One assay concerns GPR32. Put plainly: Repeat of proposed literature pairing (mass redistribution and/or internalization). The format is cell-based, human. An excerpt: (§1) DMR assays provide a single integrated readout of ligand-dependent cellular response, utilizing an optical biosensor in specialized microplates to detect wavelength shifts of reflected light as it passes through the biosensor and the lower portion of the cell (∼150-200 nm). As a signal pathway agnostic approach, DMR assays are well-suited to the study of GPCRs ([Fang et al., 2008], [Schröder et al., 2011]). The mass redistribution response (Δ picometer (pm)) likely reflects a number of intracellular events, including cytoskeletal rearrangement, protein trafficking and receptor internalization. Orphan receptor-expressing cells were gently washed twice with assay buffer (HBSS with 1 mM CaCl2, 1 mM MgCl2, 20 mM HEPES, 0.01% pluronic F-68, pH 7.4) containing 0.1% DMSO and cells were equilibrated for 90 min at 22°C in the EPIC Benchtop (BT) System (Corning) to establish a stable DMR signal. After 3-5 min baseline recordings, peptides (10 μM) were added in duplicate wells using an electronic 384-channel Viaflo pipette (Integra Biosciences, Switzerland) and DMR responses were measured for 60 min at 22°C. 100 nM norepinephrine was included as an internal assay control to assess the cellular DMR response via endogenously-expressed adrenoceptors in the TREx 293 cells. Real-time data were processed using the BT to column converter MS-Excel macro (Corning) and analyzed in GraphPad Prism 7.0. DMR recordings in peptide screening experiments were buffer and solvent corrected and the area under the curve (AUC) was quantified. For subsequent validation experiments, peptides were diluted in assay buffer containing 0.1% DMSO and DMR assays were performed as above. […] Data represent mean ± standard error of the mean (SEM) from at least 3 biologically independent experiments.
(§2) A TR-FRET real-time internalization assay was used to examine peptide-dependent changes in orphan receptor localization as described previously ([Foster and Bräuner-Osborne, 2018]). Surface-expressed SNAP-tagged receptors were labeled with a cell-impermeable luminescent terbium cryptate (100 nM SNAP Lumi4-Tb; Cisbio, France) for 1 hr at 37°C. Cells were washed to remove excess terbium and incubated with fluorescein-O-acetic acid (100 μM; Sigma Aldrich) for 5 min at 37°C. Peptides were added as for DMR assays, and internalization responses were recorded for 60 min at 37°C using an EnVision 2104 Multimode plate reader (PerkinElmer). 100 nM GLP-1 was used as a positive control for SNAP-GLP1R internalization. Real-time internalization responses were calculated based on TR-FRET (excitation 340 nm; emission 520 nm and 615 nm), and were expressed as the ratio between donor (terbium) and acceptor (fluorescein) emission. For peptide screening analysis (both DMR and internalization assays), we calculated the area under the curve from the real-time traces. As the magnitude of the responses was variable between orphan receptor targets, particularly for the SNAP-tag based internalization assay where the signal is dependent on receptor surface expression, the AUC values were normalized to their respective plate averages and expressed as fold change. Validation experiments for receptor internalization were performed as above. Internalization data was processed in MS-Excel and area under the curve was used to generate concentration-response curves using GraphPad Prism 7.0. Data represent mean ± standard error of the mean (SEM) from at least 3 biologically independent experiments.

A further assay relates to human GPCRs. More on the design: method as in Guide to Pharmacology database. The note with it: max reported value, ref Guide to Pharmacology database, cited from earlier work. The source says: Supplement mmc1.xlsx, sheet "HumanGPCRLigands" | column: pKi_value; pKd_value; pEC50_value; pIC50_value
The next assay has as its system GPR83. The experiment in a line: Repeat of proposed literature pairing (mass redistribution and/or internalization). The format is cell-based, human.
Description: as §1, §2

Assay [1] concerns the target T1, GPR15 (Homo sapiens, UniProt P49685).
T1 construct: hIL-2Ra signal peptide (N); expressed in transfected cells
T1 sequence (P49685 2-360 limits assumed): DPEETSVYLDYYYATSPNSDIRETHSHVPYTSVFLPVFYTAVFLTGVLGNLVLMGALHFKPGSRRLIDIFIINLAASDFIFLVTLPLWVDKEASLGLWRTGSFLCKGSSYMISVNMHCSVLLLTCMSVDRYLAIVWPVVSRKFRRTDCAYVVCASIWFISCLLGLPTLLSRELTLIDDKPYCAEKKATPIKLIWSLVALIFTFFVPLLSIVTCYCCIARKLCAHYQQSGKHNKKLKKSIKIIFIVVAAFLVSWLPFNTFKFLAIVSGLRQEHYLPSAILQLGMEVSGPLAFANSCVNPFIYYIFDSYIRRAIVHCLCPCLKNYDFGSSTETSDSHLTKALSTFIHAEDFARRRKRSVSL
Put plainly: cAMP inhibition (Gi/o), HTRF with forskolin. The assay is classed as cell-based. The note with it: receptor GPR15, mean, SEM and n (4). As for the experimental part:
Peptide-dependent second messenger responses were measured using commercially available HTRF-based IP1 and cAMP kits (Cisbio) as described previously ([Nørskov-Lauritsen et al., 2014]). Receptor expression was induced for 48 hr with 0.1 μg/ml doxycycline in 10 cm dishes. For IP1 measurements (to measure Gq/11), 2,500 cells/well were mixed with ligands in triplicate wells in low volume white 384-well plates at 37°C for 30 min. For cAMP assays, 2,500 cells/well were added in triplicate wells in white 384-well plates in the absence or presence of 3 μM forskolin (to measure Gs and Gi/o activation respectively). 100 μM IBMX was included to prevent cAMP degradation during 30 min stimulation on a plate shaker at room temperature. For both assays, HTRF was measured using an EnVision 2104 Multimode plate reader (PerkinElmer).
(In general: In TR-FRET formats the signal depends on donor and acceptor labels being close together.)

Assay [2] addresses T1, GPR15. Put plainly: Dynamic mass redistribution (DMR), concentration-response. The assay is classed as cell-based. Conditions: receptor GPR15; mean, SEM and n (3); read-out: DMR assays pEC50 (converted). As for the experimental part: (§3) 48 hr prior to parallel assaying, SNAP-tagged oGPCR cells were plated (10,000 cells/well) in fibronectin-coated 384-well Epic biosensor microplates (Corning) and poly-D-lysine coated white 384-well plates (for internalization assays). SNAP- GLP-1 receptor was plated alongside orphan receptor cells as an internal assay control for internalization assays. Receptor-expression was induced with 0.1 μg/ml doxycycline.
as §1

The target in assay [3] is T1, GPR15. The experiment in a line: Real-time receptor internalization (TR-FRET), concentration-response. Conditions: mean, SEM and n (3), read-out: Internalization assays pEC50 (converted). The format is cell-based. As for the experimental part:
as §3, §2

In another assay the test system is GPR19. Put plainly: Repeat of proposed literature pairing (mass redistribution and/or internalization). The format is cell-based, human.
In the next assay the test system is GPR151. Described as above. The format is cell-based, human.
Description: as §1, §2

A further assay has as its system P2RY10. Described as above. The format is cell-based, human. The note with it: for receptor-dependent activation by proposed ligand, P2RY10: repeat of literature pairing across multiple assays, Figure S7A, Tables S5 and S7.
Description: as §1, §2

The next assay relates to GPR37L1. The assay is described as above. The assay is classed as cell-based, human.
Description: as §1, §2

The test system of a further assay is GPR37. The description is as above. The format is cell-based, human.
Description: as §1, §2

Where [4] appears, read: repeat of literature pairing, Figure S7A, Tables S5 and S7.
The mark [5] stands for this setting: receptor galr1_human (GALR1, P47211).
[6] abbreviates: receptor galr2_human (GALR2, O43603).
The mark [7] stands for this setting: receptor galr3_human (GALR3, O60755).

With `CC/C=C\C[C@H](O)/C=C/C=C\C=C\C=C\[C@@H](O)[C@@H](O)C/C=C\CCC(=O)O` [RvD1], the “Lipid pairing for orphan receptor GPR32 (confirmed/unconfirmed)” value in the assay with GPR32 (repeat of literature pairing) was “Unconfirmed lipid pairings for orphans”.

In the case of `CC/C=C\C[C@H](O)/C=C/C=C\C=C\C=C\[C@@H](O)[C@@H](O)C/C=C\CCC(=O)O` [resolvin D1], the “receptor-dependent activation by proposed ligand, GPR32” value in the assay on GPR32 (setting [4]) was “no activity”. For the same molecule, the “Comment (response in DMR / internalization assays)” value in the assay with GPR32 (target GPR32) is “No response in any assay”. Also, the “Active in DMR/internalization” value in the assay on GPR32 (target GPR32, reported ligand tested on receptor-expressing cell line) was “No”. Besides, the pEC50_value in the assay with human GPCRs (receptor fpr2_human (FPR2, P25090)) was 11.9; in the assay on human GPCRs (receptor gpr32_human (GPR32), Class A orphans), 11.1.

For “PEN: neuroendocrine peptide PEN, proposed GPR83 ligand (AADHDVGSELPPEGVLGALLRV)”, the “Peptide pairing for orphan receptor GPR83 (confirmed/unconfirmed)” value in the assay with GPR83 (repeat of literature pairing) is “Confirmed peptide pairings for orphans”. Moreover, the “receptor-dependent activation by proposed ligand, GPR83” value with GPR83 (repeat of literature pairing across multiple assays, Figure S7A, Tables S5 and S7) is given as “selective receptor-dependent activation”. Moreover, the “Comment (response in DMR / internalization / Tango assays)” value in the assay with GPR83 (target GPR83) is “PEN is included in library (peptide 146) and was purchased separately. Active in DMR, inactive in internalization, but also active in Tango”. Moreover, the “Active in DMR/internalization” value in the assay with GPR83 (target GPR83, reported ligand tested on receptor-expressing cell line) was “Yes (DMR)”.

“TRLCCHRVPSPNSTNLKGHHVRLCKPCKLEPEPRLWVVPGALPQV (disulfide 4-27, 5-24) [64.3 (Phoenix)]”: the maximal response (Emax) at GPR15 [1] (read-out: cAMP accumulation assays Emax (% FSK)) amounted to 40.8%. The results for the EC50 on GPR15 [1] (read-out: cAMP accumulation assays pEC50 (converted)), at GPR15 [2] and at GPR15 [3] were 25.7 nM, 13.2 nM and 447 nM, respectively.

With “adropin (CHSRSADVDSLSESSPNSSPGPCPEKAPPPQKPSHEGSYLLQP; not fully specified; cysteine pairing not given here; UniProt Q6UWT2 34-76, looked up) [proposed GPR19 ligand]”, the “Peptide pairing for orphan receptor GPR19 (confirmed/unconfirmed)” value in the assay on GPR19 (repeat of literature pairing) is given as “Unconfirmed peptide pairings for orphans”. Further, in the assay on GPR19 (setting [4]), the “receptor-dependent activation by proposed ligand, GPR19” value is reported as “no activity”. Besides, in the assay on GPR19 (target GPR19), the “Comment (response in DMR / internalization assays)” value is listed as “No response in any assay”. Also, the “Active in DMR/internalization” value in the assay with GPR19 (target GPR19, reported ligand tested on receptor-expressing cell line) is on record as “No”.

On to galanin [reference compound], for which the “Peptide pairing for orphan receptor GPR151 (confirmed/unconfirmed)” value with GPR151 (repeat of literature pairing) is “Unconfirmed peptide pairings for orphans”. In addition, in the assay on GPR151 (setting [4]), the “receptor-dependent activation by proposed ligand, GPR151” value is “no activity”. In addition, the “Comment (response in DMR / internalization assays)” value in the assay on GPR151 (target GPR151) was “Galanin is included in library (peptide 177) and was purchased separately. No response in any assay”. For the same molecule, the “Active in DMR/internalization” value with GPR151 (target GPR151, reported ligand tested on receptor-expressing cell line) is reported as “No”. Further, in the assay with human GPCRs (setting [5]), the pIC50_value is given as 9.9 and the pKi_value is on record as 10.5. In the assay with human GPCRs (setting [6]), the pEC50_value is listed as 9.1, the pIC50_value was 9.3 and the pKi_value is 9.1. Moreover, in the assay on human GPCRs (setting [7]), the pIC50_value is 7.1 and the pKi_value is on record as 7.2.

As to lysophosphatidic acid, in the assay with P2RY10, the “receptor-dependent activation by proposed ligand, P2RY10” value is “no activity”.

As for lysophosphatidylserine [LPS], the “Lipid pairing for orphan receptor P2RY10 (confirmed/unconfirmed)” value in the assay with P2RY10 (repeat of literature pairing) is listed as “Confirmed lipid pairings for orphans”. Further, the entries for the “receptor-dependent activation by proposed ligand, P2RY10” value in the assay with P2RY10 and in the assay on P2RY10 (listed as lysophosphatidylserine) were “selective receptor-dependent activation” and “marginal”, respectively. The pEC50_value is given as 7.1 in the assay with human GPCRs (receptor gp174_human (GPR174), Class A orphans) and 6.9 in the assay on human GPCRs (receptor gpr34_human (GPR34), Class A orphans).

Regarding prosaptide, in the assay on GPR37L1 (repeat of literature pairing), the “Peptide pairing for orphan receptor GPR37L1 (confirmed/unconfirmed)” value is “Unconfirmed peptide pairings for orphans”. Further, the “receptor-dependent activation by proposed ligand, GPR37L1” value with GPR37L1 (setting [4]) is listed as “no activity”. The “Comment (response in DMR / internalization assays)” value in the assay on GPR37L1 (target GPR37L1) and in the assay with GPR37 (target GPR37) was “No response in any assay” in each case. In addition, the “Active in DMR/internalization” value with GPR37L1 (target GPR37L1, reported ligand tested on receptor-expressing cell line) is recorded as “No”; in the assay with GPR37 (target GPR37, reported ligand tested on receptor-expressing cell line), “No”. Besides, the “Peptide pairing for orphan receptor GPR37 (confirmed/unconfirmed)” value in the assay with GPR37 (repeat of literature pairing) is “Unconfirmed peptide pairings for orphans”. Besides, the “receptor-dependent activation by proposed ligand, GPR37” value in the assay on GPR37 (setting [4]) is recorded as “no activity”.
